Measurements from patent publication US9168243B2, “Pharmaceutical compositions comprising 8-substituted dibenzylbutyrolactone lignans” (priority 2010, dated 2015).
“Also recorded” adds a separate entry of the source.

Tests used:
Assay type in all cases: cell-based
[1] = tested on: phospho-Akt(ser473); assay: Western blot of Akt / phospho-Akt(ser473)
Procedure: Whole cell lysates were prepared by lysing floating and attached cells in Laemmli sample buffer and boiling the samples for 10 minutes. Proteins were separated by SDS-PAGE and transferred on PVDF membrane (Millipore). Western blotting was performed using antibodies against Akt, phospho-Akt (Ser473), GSK-3β, phospho-GSK-3β (Ser9) and phospho-EGF receptor Tyr(1068) (Cell Signalling Technology), Actin (clone AC-40; Sigma-Aldrich), PI3K p85α (clone 4/PI3-Kinase; BD Pharmingen), EGF receptor, Insulin receptor β and IGF-I receptor β (Santa Cruz Biotechnology), and Phospho-tyrosine (clone 4G10; Millipore). HRP-conjugated secondary antibodies were from Southern Biotechnology Associates, Promega, and Amersham Biosciences. The results were visualized using the ECL method (Amersham Biosciences) on x-ray film. The presented Western blot results are representative of at least three independent experiments. Densitometric analysis of Western blots was done using scanned films with the MCID M5+ software. The values were normalized to the untreated control sample, which was given the value 1. The histograms in FIG. 4 present a relative decrease in ratio of phosphorylated vs. non-phosphorylated protein compared to control cells.
LNCaP cells (+/−1 nM androgen) were treated with 0-100 μM enterolactone (ENL), matairesinol (MAT) or NTG for 1 hour prior to preparation of total cell lysates (FIG. 4A). The relative decrease in pAkt/Akt ratio was quantified from western blot analysis with Akt (60 kDa) and phospho-Akt(ser473) (Mean±SEM; n=4; Student's t-test *p<0.05, **p<0.01). Alternatively, androgen-deprived LNCaP cells were incubated with 100 μM NTG for 2 hours, fixed and labeled with Akt antibody followed by Alexa 546-conjugated secondary antibody. The samples were viewed at LSM 510 confocal microscope (63× oil objective, 543 nm excitation) (FIG. 4B). To examine the time-dependence of the observed inhibitory effect, LNCaP cells (+/−1 nM androgen) were incubated with 100 μM NTG for 0-8 hours after which total cell lysates were prepared. The western blot analysis with Akt, phospho-Akt(ser473), GSK-3β and phospho-GSK-3β(ser9) was quantified. The histogram presents a relative decrease in pAkt/Akt ratio (FIG. 4C.) or pGSK-3β/GSK-3β ratio (FIG. 4D.) compared to control cells (Mean±SEM; n=3). […]
Importantly, substitution with methyl group at position 8 further increases activity of dibenzylbutyrolactone lignans in sensitization of LNCaP prostate cancer cells to TRAIL-mediated apoptosis (FIG. 8). […] The samples were analyzed by flow cytometry and the fraction of sub-G0/G1 events (nuclear fragmentation) was detected as a measure of apoptotic cell death (mean±SEM; n=4). […]

[2] = tested on: LNCaP cells; assay: Apoptosis after prolonged incubation with NTG alone; conditions: 0-100 μM NTG, 24-72 h
[3] = tested on: non-malignant prostate epithelial RWPE-1 cells; assay: Caspase-3 activation by flow cytometry in a non-malignant prostate cell line; conditions: 40 μM NTG 1 h before izTRAIL in different concentrations, 20 h
Procedure: The LNCaP prostate cancer cells (clone FGC; EACC) were cultured in RPMI-1640 medium (Sigma-Aldrich) supplemented with 10% fetal calf serum (BioClear), 2 mM L-glutamin, 100 U/ml penicillin, 100 μg/ml streptomycin and 1 mM sodium pyruvate (Sigma-Aldrich). One day prior to treatment medium was changed to phenol red free RPMI-1640 (Gibco) with or without 1 nM synthetic androgen (Mibolerone). This medium was supplemented with 10% charcoal/dextran treated fetal bovine serum (Hyclone), L-glutamine, penicillin and streptomycin. SV40 transformed prostate epithelial RWPE-1 cell line was kindly provided by Professor Olli Kallioniemi. […]
Flow cytometric analysis of apoptosis with HTS platform was performed on cells that were plated on a 96-well plate as triplicate samples. […] After 10 minutes incubation at room temperature, the plate was analyzed with LSRII flow cytometer equipped with HTS platform (PE-A channel). […] The plate was analyzed with LSRII flow cytometer equipped with HTS platform (FSC, PE-A channel). […] Activated caspase-3 in cells was labeled with phycerythrin (PE)-conjugated antibody according to manufacturer's protocol (BD Pharmingen) and analyzed by FacsCalibur flow cytometer (FL-2, FSC). […]

[4] = LNCaP +/- androgen, 100 μM NTG 2 hours, then medium change

Question: `COc1cc(CC2COC(=O)C2(O)Cc2ccc(O)c(OC)c2)ccc1O` (centres unmarked) [NTG, Nortrachelogenin] was tested. Which “Akt phosphorylation (pAkt/Akt ratio)” value ([1]; LNCaP +/- 1 nM androgen, 0-100 μM lignan, 1 hour (NTG also 100 μM, 0-8 hours)) did it give?
Answer: Its value is “downregulates Akt and GSK-3β phosphorylation; also recorded: inhibit Akt phosphorylation yet more efficiently than ENL or MAT”.

Question: And the “time after washout at which Akt activity starts returning” value [1, 4]?
Answer: Its value is 10 min.

Question: And the “time after washout to total recovery of Akt activity” value [1, 4]?
Answer: The value was at most 1 h.

Question: What about the “induction of apoptosis by NTG alone” value [2] of the same compound?
Answer: The value was “did not induce apoptosis”.

Question: What about the “sensitization of non-malignant cells to TRAIL (caspase-3 activation)” value [3] of the same compound?
Answer: The value was “did not display any sensitization to TRAIL”.
